pIC50: −log10 of the molar value. Where two headings read alike, the source gives them in different places.
Assays:
[1] = molecular target: T1, human recombinant COX2 (hCOX2) (UniProt P35354); assay: LCMS-based COX2 enzymatic inhibition assay (PGE2 quantification); format: biochemical; set-up: COX2 2 minutes pge2/pge2d4 area ratio Avg; other: 2 minutes; readout pge2/pge2d4 area ratio; average; COX2 2 minutes pge2/pge2d4 area ratio Avg; LLE; average LLE; COX2 2 minutes pge2 area (counts) Avg; readout pge2 area (counts); other: 2 min; "ovine COX2 (oCOX2), human recombinant COX2 (hCOX2)"; conditions: 2 minutes; for COX2 2 minutes pge2/pge2d4 area ratio Avg. LLE / COX2 2 minutes pge2 area (counts) Avg. LLE: average LLE; for pIC50: average
T1 sequence (P35354 1-604): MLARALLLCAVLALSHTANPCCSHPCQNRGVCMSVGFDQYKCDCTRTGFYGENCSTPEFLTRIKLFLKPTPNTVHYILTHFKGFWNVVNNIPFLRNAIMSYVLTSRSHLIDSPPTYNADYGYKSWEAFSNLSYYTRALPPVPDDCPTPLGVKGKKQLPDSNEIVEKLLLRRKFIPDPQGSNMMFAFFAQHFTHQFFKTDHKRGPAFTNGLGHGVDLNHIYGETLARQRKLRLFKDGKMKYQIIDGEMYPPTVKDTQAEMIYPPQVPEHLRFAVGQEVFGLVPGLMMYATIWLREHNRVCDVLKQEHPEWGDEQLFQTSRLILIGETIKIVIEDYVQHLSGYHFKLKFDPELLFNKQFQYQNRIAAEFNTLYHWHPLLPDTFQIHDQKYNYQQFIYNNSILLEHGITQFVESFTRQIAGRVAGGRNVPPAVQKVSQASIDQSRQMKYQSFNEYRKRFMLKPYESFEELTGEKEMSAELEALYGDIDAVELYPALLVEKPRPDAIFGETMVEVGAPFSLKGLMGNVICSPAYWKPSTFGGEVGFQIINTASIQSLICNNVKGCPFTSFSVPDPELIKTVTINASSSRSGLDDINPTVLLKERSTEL
Procedure, shortened: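 Ovine COX-1 (0.1 μg) or human recombinant COX2 (0.2 μg) in 100 mM Tris.HCl pH 8.0 with hematin and epinephrine, preincubated with inhibitor 10 min at 37 °C. Reaction with 5 μM arachidonic acid stopped after 2 min with HCl; PGE2 quantified by LC-MS-MS. IC50 from 12 concentrations in triplicate.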

ovine COX-1 (oCOX-1) = molecular target: T2, ovine COX-1 (oCOX-1) (Ovis aries, UniProt P05979); assay: LCMS-based COX-1 enzymatic inhibition assay (PGE2 quantification); format: biochemical; conditions: for COX1 10 minutes pge2/pge2d4 area ratio Avg. LLE / COX1 10 minutes pge2 area (counts) Avg. LLE: average LLE
T2 construct: purchased Cayman Chemicals (Ann Arbor, Mich.)
T2 sequence (P05979 25-600): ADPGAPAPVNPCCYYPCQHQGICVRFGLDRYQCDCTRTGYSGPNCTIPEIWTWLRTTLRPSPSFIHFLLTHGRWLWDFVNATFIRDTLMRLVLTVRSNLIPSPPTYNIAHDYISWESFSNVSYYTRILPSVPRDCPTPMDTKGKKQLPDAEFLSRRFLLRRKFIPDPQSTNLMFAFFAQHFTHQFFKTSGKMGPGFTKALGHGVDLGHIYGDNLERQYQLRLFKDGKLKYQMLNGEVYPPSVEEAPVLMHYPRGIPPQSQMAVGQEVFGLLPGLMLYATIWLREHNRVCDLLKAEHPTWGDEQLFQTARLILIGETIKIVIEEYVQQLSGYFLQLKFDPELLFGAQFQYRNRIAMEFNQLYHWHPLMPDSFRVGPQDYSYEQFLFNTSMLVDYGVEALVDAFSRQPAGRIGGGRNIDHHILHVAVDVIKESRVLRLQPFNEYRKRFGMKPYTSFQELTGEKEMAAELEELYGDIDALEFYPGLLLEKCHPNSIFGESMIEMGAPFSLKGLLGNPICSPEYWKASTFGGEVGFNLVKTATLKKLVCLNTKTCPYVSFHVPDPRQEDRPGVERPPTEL
Protocol: We have adapted a previously reported cyclooxygenase enzymatic assay utilizing LCMS quantification of PGE2 as the product of COX-1 and COX2 catalyzed conversion of arachidonic acid to evaluate the binding properties of newly synthesized ligands [Cao, 2011]. These optimized and miniaturized (384-well plates) LCMS-based COX-1 and COX2 enzymatic assays enabled us to quickly evaluate newly synthesized ligands for COX2 binding affinity and selectivity vs COX-1. Using a shorter ligand-enzyme incubation time in the LCMS assay (2 minutes vs 10 minutes) also permitted us to prioritize ligands with faster binding kinetics. Considering the relatively slow on-rate kinetics of known coxibs, due to their 3-step binding mechanism [Marnett, 2009], we believe that optimizing this critical parameter will be key to the successful development of a COX2 PET tracer. Using these enzymatic assays, we have evaluated>200 newly synthesized ligands against COX2 and >20 ligands against COX-1. Another critical property necessary for a good PET radiotracer is to have low non-specific binding (NSB) to increase the free fraction and maximize the signal to noise ratio. This property can be evaluated using in-vitro protein binding assays, and we have now evaluated>50 newly synthesized ligands in mouse, rat and human plasma protein binding (PPB) assays as well as >15 ligands in a mouse brain protein binding (BPB) assay.
Ovine COX-1 (oCOX-1), ovine COX2 (oCOX2), human recombinant COX2 (hCOX2), arachidonic acid, PGE2, d4-PGD2, and […] (labeled with deuterium atoms at positions 3 and 4) were purchased from Cayman Chemicals (Ann Arbor, Mich.). The cofactors (−)epinephrine and hematin, and the COX inhibitors indomethacin, resveratrol and diclofenac were purchased from Sigma-Aldrich (St. Louis, Mo.). Celecoxib was purchased from 3B PharmaChem International (Wuhan, China). All organic solvents were HPLC grade or better and were purchased from Thermo Fisher (Hanover Park, Ill.). Formic acid was purchased from EMD Chemicals (San Diego, Calif.). Purified water was prepared by using a Millipore Milli-Q purification system (Millipore, Billerica, Mass.). All other chemicals and solvents were ACS reagent grade, unless stated otherwise.
In an Eppendorf tube, 146 μL of 100 mM Tris.HCl (pH 8.0) buffer, 2 μL of 100 μM hematin (co-factor) and 10 μL of 40 mM L-epinephrine (co-factor) were mixed at room temperature. Next, 20 μL of Tris.HCl (pH 8.0) buffer containing 0.2 μg COX2 or 0.1 μg COX-1 (approximately 1 unit of enzyme; 1 unit COX utilizes 1 nmol 02/mg/min at 37° C.) was added, and the solution was incubated at room temperature for 2 min. A 2 μL aliquot of the COX inhibitor in DMSO was added to the enzyme solution and preincubated at 37° C. for 10 min. Negative controls were identical except that 2 μL aliquots of DMSO without inhibitor were used instead.
Each COX reaction was initiated by adding 20 μL of arachidonic acid in Tris.HCl (pH 8.0) buffer to give a final concentration of 5 μM; and the reaction was terminated after 2 min by adding 20 μL of 2.0 M HCl. The surrogate standards d4-PGE2 and d4-PGD2 (10 μL aliquot of 50 ng/mL solution in methanol) were added to correct for errors or degradation during sample handling and for variation in injection volume or instrument response during LC-MS-MS. After 30 min, PGE2, PGD2 and their surrogate standards were extracted from each incubation mixture using 800 μL hexane/ethyl acetate (50:50, v/v). The organic phase was removed, evaporated to dryness, and reconstituted in 100 μL methanol/water (50:50, v/v) for analysis using LC-MS-MS.
The concentration of PGE2 in each sample was measured using LC-MS-MS, and the percent of COX inhibition by each test solution was determined by comparing the amount of PGE2 produced in the experiment with that produced in the negative control incubation. The formation of PGD2 was measured for quality control purposes, since the levels of PGD2 should be proportional to those of PGE2. […]

[2] = readout pge2/pge2d4 area ratio, read-out: COX2 2 minutes pge2/pge2d4 area ratio Avg. IC50
[3] = readout pge2 area (counts), read-out: COX2 2 minutes pge2 area (counts) Avg. IC50
[4] = 10 minutes, readout pge2/pge2d4 area ratio
[5] = 10 minutes, readout pge2/pge2d4 area ratio, average, read-out: COX1 10 minutes pge2/pge2d4 area ratio Avg. IC50
[6] = 10 minutes, readout pge2 area (counts)
[7] = 10 minutes, readout pge2 area (counts), average, read-out: COX1 10 minutes pge2 area (counts) Avg. IC50

| SMILES | COX2 2 minutes pge2/pge2d4 area ratio Avg. LLE ([1]; readout pge2/pge2d4 area ratio) | pIC50 [1, 2] | COX2 2 minutes pge2 area (counts) Avg. LLE ([1]; readout pge2 area (counts)) | pIC50 [1, 3] | COX1 10 minutes pge2/pge2d4 area ratio Avg. LLE (ovine COX-1 (oCOX-1); [4]) | pIC50 (ovine COX-1 (oCOX-1); [5]) | COX1 10 minutes pge2 area (counts) Avg. LLE (ovine COX-1 (oCOX-1); [6]) | pIC50 (ovine COX-1 (oCOX-1); [7]) | pIC50 (ovine COX-1 (oCOX-1)) |
| --- | --- | --- | --- | --- | --- | --- | --- | --- | --- |
| CS(=O)(=O)c1ccc(-c2cc(F)cc(OCc3cccs3)n2)cc1 [Compound 6] | 4.364 | 8.20 | 4.247 | 8.09 | 1.694 | 5.54 | 1.673 | 5.52 |  |
| Cc1csc(COc2cncc(-c3ccc(S(C)(=O)=O)cc3)n2)c1 [Compound 10] | 5.4246 | 8.09 | 5.349 | 8.02 | 2.513 | 5.23 | 2.529 | 5.25 |  |
| CS(=O)(=O)c1ccc(-c2cccc(NCc3ccsc3)n2)cc1 [Compound 11] | 4.584 | 8.07 | 4.6244 | 8.09 |  |  | 0.8485 | 4.37 |  |
| CSc1ccc(NCc2cccs2)nc1-c1ccc(S(C)(=O)=O)cc1 [Compound 20] | 3.9449 | 7.97 | 3.942 | 7.94 | 0.214 |  | 0.214 |  | 4.28 |
| CS(=O)(=O)c1ccc(-c2cccc(OCc3ccc(F)s3)n2)cc1 [Compound 30] | 3.668 | 7.82 | 3.685 | 7.91 | 0.1181 | 4.37 | 0.2149 | 4.46 |  |
| CS(=O)(=O)c1ccc(-c2ccc3ccn(Cc4cccs4)c3n2)cc1 [Compound 31] | 3.218 | 7.82 | 3.116 | 7.73 | 1.013 | 5.65 | 0.929 | 5.57 |  |
| CS(=O)(=O)c1ccc(-c2cccc(OCc3cccs3)n2)nc1 [Compound 37] | 5.44 | 7.74 | 5.694 | 7.84 | 2.056 | 4.41 | 2.13 | 4.48 |  |
| Cc1ncc(-c2ccc(S(C)(=O)=O)cc2)nc1OCc1cccs1 [Compound 38] | 5.142 | 7.73 | 5.088 | 7.69 | 3.526 | 6.16 | 3.306 | 5.91 |  |
| CS(=O)(=O)c1ccc(-c2coc3ccc(NCc4cccs4)nc23)cc1 [Compound 39] |  | 7.73 |  | 7.74 |  |  |  |  | 4.28 |
| CS(=O)(=O)c1ccc(-c2cccc(NCc3cccs3)c2)cc1 [Compound 42] | 3.551 | 7.71 | 3.78 | 8.17 | 0.01187 | 4.44 | −0.01745 | 4.41 |  |

Reference: patent publication US20220348590A1, “CYCLOOXYGENASE-2 INHIBITORS AND USES THEREOF” (The Board Institute, Inc., priority 2019, published 2022)
